In article PMC9854712 (Antioxidants, 2023):

How the values were obtained:
[1] = tested on: DU-145 cells; experiment: MTT cell viability assay, DU-145; type: cell-based; conditions: for viability at 10 µM: Homo sapiens, DU-145, 48 h, read-out: Cell growth % at 10 µM, DU-145
Description: (§1) The cell lines were obtained from the American Type Culture Collection (ATCC). Five tumor cell lines (MDA-MB-231, MCF-7, HCT116, HTB-54, and DU-145) and two non-tumorigenic cells (184B5 and BEAS-2B) were grown in RPMI 1640 medium (Gibco), and the HT-29 tumor cell line was grown in McCoy’s medium. Both mediums were supplemented with 10% fetal bovine serum (FBS; Gibco) and 1% antibiotics (10.00 units/mL penicillin and 10.00 μg/mL streptomycin; Gibco). Cells were preserved in tissue culture flasks at 37 °C and 5% CO2. The culture medium was replaced every three days.
(§2) The effect of each compound on cell viability was tested using the MTT assay. […] Selected compounds were then tested at seven different concentrations (0.5–100 μM) in MCF-7, HCT116, HT-29, HTB-54, 184B5 and BEAS-2B cells. Cells were seeded at 10^4 per well onto flat-bottomed 96-well culture plates. They were treated with either DMSO or increasing concentration of the corresponding compound for 48 h. Then, they were incubated with 20 μL of 3-(4,5-dimethylthiazol-2-yl)-2,5-diphenyltetrazolium bromide (MTT) (2 mg /mL stock; Aldrich) for 2,5 h and analyzed for their ability to generate a purple formazan dye. These formazan crystals were dissolved in 50 μL of DMSO. The absorbance was measured at a wavelength of 550 nm and the ratio of viable cells was calculated.
(§3) Results are expressed as cell viability % at 10 μM. Selectivity index were calculated as the ratio of the IC50 values determined for the non-malignant and the tumor cells in breast (IC50 (184B5)/IC50 (MCF-7)) and lung (IC50 (BEAS-2B)/IC50 (HTB-54)) cell lines. Data were obtained from at least three independent experiments performed in triplicates.

[2] = tested on: HTB-54 cells; experiment: MTT cell viability assay, HTB-54; type: cell-based; conditions: 10 µM, 48 h, MTT; for viability at 10 µM: HTB-54, read-out: Cell growth % at 10 µM, HTB-54
Description: as §1, §2, §3

[3] = tested on: MDA-MB-231 cells; experiment: MTT cell viability assay, MDA-MB-231; type: cell-based; conditions: for viability at 10 µM: Homo sapiens, MDA-MB-231, 48 h, read-out: Cell growth % at 10 µM, MDA-MB-231
Description: as §1, §2, §3

[4] = molecular target: T1, AChE (Rattus norvegicus, UniProt P37136); experiment: AChE inhibition by Ellman's method (rat frontal cortex homogenate); type: biochemical; conditions: at 10^−6 M, Ellman's method
T1 construct: from tissue; host or cells: frontal cortex of male Wistar rats (crude homogenate)
T1 sequence (P37136 32-614): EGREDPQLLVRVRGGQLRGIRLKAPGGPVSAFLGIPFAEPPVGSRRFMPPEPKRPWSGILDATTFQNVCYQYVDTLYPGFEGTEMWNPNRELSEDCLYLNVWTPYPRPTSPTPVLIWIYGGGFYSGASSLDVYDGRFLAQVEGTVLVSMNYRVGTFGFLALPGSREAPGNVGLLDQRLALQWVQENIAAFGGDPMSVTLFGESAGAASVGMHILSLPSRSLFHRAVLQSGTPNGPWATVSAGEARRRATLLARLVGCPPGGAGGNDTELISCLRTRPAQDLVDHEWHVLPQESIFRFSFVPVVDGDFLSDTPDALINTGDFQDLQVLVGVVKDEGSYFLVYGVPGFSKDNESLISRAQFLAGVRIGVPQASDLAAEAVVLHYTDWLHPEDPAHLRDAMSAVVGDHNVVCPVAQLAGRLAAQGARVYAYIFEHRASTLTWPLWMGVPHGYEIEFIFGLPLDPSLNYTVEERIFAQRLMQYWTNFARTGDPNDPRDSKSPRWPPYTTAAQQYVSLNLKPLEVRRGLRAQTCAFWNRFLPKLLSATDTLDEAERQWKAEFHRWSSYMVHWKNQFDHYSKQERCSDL
Description: Frontal cortex tissue obtained from male Wistar rats was homogenized in 39 volumes of 75 mM sodium phosphate buffer (pH 7.4). A mixture of 260 μL containing the compounds assessed, acetylthiocholine iodide and 5 μL tissue homogenate was incubated for 8 min. The reaction was then terminated by adding 50 μL 3% (w/v) sodium dodecyl sulphate followed by 50 μL 0.2% (w/v) 5,5′-dithio-bis(2-nitrobenzoic) acid to produce the yellow anion of 5-thio-2-nitro-benzoic-acid. The extent of the color production was measured spectrophotometrically at 405 nm using Multiskan Ex (Thermo Electron Corporation). […] Results are expressed as the mean ± SD and each experiment was repeated three times.

[5] = tested on: HT-29 cells; experiment: MTT cell viability assay, HT-29; type: cell-based; conditions: 48 h; for viability at 10 µM: Homo sapiens, HT-29, 10 µM, read-out: Cell growth % at 10 µM, HT-29
Description: as §1, §2, §3

[6] = in vitro
Description: Franz diffusion cells (Microette 8910130, Hanson Research) were employed to perform this assay. The compounds were dissolved in DMSO at 5 mg/mL and diluted to 500 µg/mL with phosphate-buffered saline (PBS)/EtOH (7:3) to make a stock solution. A total of 10 µL of porcine brain lipid (PBL) diluted in dodecane solution (20 mg/mL) was spread onto a PVDF membrane that was placed between the donor and acceptor compartments, forming a sandwich structure. Then, 4.5 mL of PBS/EtOH (7:3) was added to the acceptor compartment and 700 µL of the stock solution was added to the donor cell. […] The concentration of the compound was calculated from the standard curve and expressed as permeability (Pe) by the following formula [84]:Permeability (cm/s): Pe = {−ln [1 − CA(t)/Ceq]}/[A ∗ (1/VD + 1/VA) ∗ t]
A = filter area ([…]), VD = donor cell volume (0.7 mL), VA = acceptor cell volume (4.5 mL), t = incubation time, CA (t) = compound concentration in acceptor cell at time t, CD (t) = compound concentration in donor cell at time t, and Ceq = [CD(t) ∗ VD + […] ∗ VA]/(VD + VA).
Every sample was analyzed at least in duplicate and the data were reported as mean ± SD.

[7] = tested on: HT-29 cells; conditions: parent NSAID; cited from earlier work
[8] = tested on: panel of 60 human tumor cell lines; design: method as in PMID 19549304; conditions: same cell line panel; cited from earlier work

Question: Which results are given for `C#CC[Se]C(=O)c1ccccc1Nc1cccc(C)c1C` [Compound 18b, Se-prop-2-ynyl 2-(2,3-dimethylphenyl)aminobenzoselenoate]?
Answer: viability at 10 µM [1]: 32.6 ± 4.6%; viability at 10 µM [2]: 62.3 ± 8.3%; viability at 10 µM [3]: 99 ± 11.2%; inhibition at 1 µM [4]: 20 ± 2.4%; viability at 10 µM [5]: 66.5 ± 9.5%

Question: For `C=CC[Se]C(=O)c1ccccc1Nc1cccc(C(F)(F)F)c1` [Compound 19a, Se-allyl 2-(3-trifluoromethylphenyl)aminobenzoselenoate], which viability at 10 µM [1] is on record?
Answer: Its viability at 10 µM is 17 ± 2.9%.

Question: And the viability at 10 µM [2]?
Answer: Its viability at 10 µM is 16.3 ± 7.6%.

Question: What about the viability at 10 µM [3] of the same molecule?
Answer: Its viability at 10 µM is 81.6 ± 9.7%.

Question: And the inhibition at 1 µM [4]?
Answer: Its inhibition at 1 µM is 19.3 ± 2%.

Question: And the viability at 10 µM [5]?
Answer: Its viability at 10 µM is 46 ± 8.7%.

Question: With `C#CC[Se]C(=O)c1ccccc1Nc1cccc(C(F)(F)F)c1` [Compound 19b] as the molecule, how does the viability at 10 µM [1] read?
Answer: Its viability at 10 µM is 25.2 ± 2.2%.

Question: And the viability at 10 µM [2]?
Answer: The viability at 10 µM was 43.6 ± 18.4%.

Question: What about the viability at 10 µM [3] of the same molecule?
Answer: Its viability at 10 µM is 92.8 ± 10.2%.

Question: What about the inhibition at 1 µM [4] of the same molecule?
Answer: The inhibition at 1 µM was 21.1 ± 2.6%.

Question: And the viability at 10 µM [5]?
Answer: Its viability at 10 µM is 61.6 ± 9.8%.

Question: Which results are given for `COc1ccc2c3c1O[C@H]1C[C@@H](O)C=C[C@@]31CCN(C)C2` [Galantamine, galantamine, reference compound]?
Answer: Papp at 20 h, 500 µg/mL ([6]; PAMPA): 12.3 ± 3.1 ×10⁻⁶ cm/s; Pe ± SD ([6]; PAMPA-BBB, porcine brain lipid, 20 h, 25 °C): 12.27 ×10⁻⁶ cm/s; BBB Permeation (Experimental) ([6]; class from PAMPA-BBB Pe): High (High BBB permeation predicted; Pe (10^−6 cm s^−1) > 4.0)

Question: With `CC(C)Cc1ccc(C(C)C(=O)O)cc1` (centres unmarked) [Ibuprofen, 2-(4-isobutylphenyl) propanoic acid] as the molecule, how does the IC50 [7] read?
Answer: Its IC50 is over 50 µM.

Question: With `COc1cc2ncnc(Nc3ccc(F)c(Cl)c3)c2cc1OCCCN1CCOCC1` [gefitinib] as the molecule, how does the GI50 [8] read?
Answer: The GI50 was 3.24 µM.

Question: With `O=C1[O][Pt]2([NH][C@@H]3CCCC[C@H]3[NH]2)[O]C1=O` [oxaliplatin] as the molecule, how does the GI50 [8] read?
Answer: The GI50 was 2.89 µM.

Question: For “Se-prop-2-ynyl 3a,7a-dihydrobenzo[d][1,3]dioxole-5-carboselenoate [Compound 4b]”, which “Cell growth % at 10 µM, DU-145” value ([1]; 48 h) is on record?
Answer: The value was 19.7 ± 2.2%.

Question: And the “Cell growth % at 10 µM, HTB-54” value [2]?
Answer: Its value is 57.8 ± 8.1%.

Question: What about the “Cell growth % at 10 µM, MDA-MB-231” value ([3]; 48 h) of the same molecule?
Answer: Its value is 62.6 ± 7.4%.

Question: And the “% AChE Inhibition” value [4]?
Answer: The value was 16.5 ± 10.6%.

Question: And the “Cell growth % at 10 µM, HT-29” value ([5]; 10 µM)?
Answer: The value was 50.6 ± 7.8%.
